Experimental data: paper PMC10175918 (Communications Biology, 2023)
“And” between values parts separate entries of the source, which are not always exact repeats. Equal entries are not always repeated. Where two headings read alike, the source gives them in different places.

How the values were obtained:
348 GPCRs [1] = target: T1, 348 GPCRs (Homo sapiens, UniProt Q9H255); experiment: TGFα-shedding assay-based GPCR screening with chimeric Gα subunit proteins; type: cell-based; details: 10µM, Favipiravir 100μM
T1 construct: expressed in transfected cells; host or cells: HEK293A
T1 sequence (Q9H255 1-320): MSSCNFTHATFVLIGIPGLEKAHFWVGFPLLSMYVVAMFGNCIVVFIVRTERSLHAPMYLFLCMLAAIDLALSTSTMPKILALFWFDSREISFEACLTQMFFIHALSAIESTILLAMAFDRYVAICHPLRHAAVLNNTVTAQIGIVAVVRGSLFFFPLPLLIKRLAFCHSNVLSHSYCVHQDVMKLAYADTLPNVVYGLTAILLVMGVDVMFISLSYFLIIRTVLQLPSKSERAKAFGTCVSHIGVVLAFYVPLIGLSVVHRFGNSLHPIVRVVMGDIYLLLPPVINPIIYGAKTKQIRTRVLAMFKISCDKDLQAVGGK

348 GPCRs [2] = target: T2, 348 GPCRs (Homo sapiens, UniProt Q9NYW7); experiment: as above; type: cell-based; details: 10µM, Favipiravir 100μM
T2 construct: expressed in transfected cells; host or cells: HEK293A
T2 sequence (Q9NYW7 1-299): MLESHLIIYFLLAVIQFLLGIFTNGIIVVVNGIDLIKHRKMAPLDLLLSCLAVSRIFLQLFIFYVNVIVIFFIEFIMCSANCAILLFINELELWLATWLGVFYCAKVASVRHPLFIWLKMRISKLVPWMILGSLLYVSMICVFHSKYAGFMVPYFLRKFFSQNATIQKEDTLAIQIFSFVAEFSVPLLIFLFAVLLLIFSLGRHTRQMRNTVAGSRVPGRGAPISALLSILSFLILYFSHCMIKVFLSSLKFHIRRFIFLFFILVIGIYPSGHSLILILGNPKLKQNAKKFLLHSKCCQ

348 GPCRs [3] = target: T3, 348 GPCRs (Homo sapiens, UniProt Q6NV75); experiment: as above; type: cell-based; details: 10µM, Favipiravir 100μM
T3 construct: expressed in transfected cells; host or cells: HEK293A

348 GPCRs [4] = target: 348 GPCRs (Homo sapiens, UniProt Q8TDS4); experiment: as above; type: cell-based
348 GPCRs [5] = target: T4, 348 GPCRs (Homo sapiens, UniProt P37288); experiment: as above; type: cell-based
T4 construct: expressed in transfected cells; host or cells: HEK293A

UTS2R T304V = experiment: TGFα-shedding assay on UTS2R mutant T304V; type: cell-based, human; details: cutoff value set to −1, single replicates
[6] = target: T5, urotensin-II receptor (UTS2R) (Homo sapiens, UniProt Q9UKP6); experiment: TGFα-shedding assay, concentration-response on UTS2R (endogenous G protein), with or without urantide; type: cell-based
T5 construct: expressed in transfected cells; host or cells: HEK293A
T5 sequence (Q9UKP6 1-389): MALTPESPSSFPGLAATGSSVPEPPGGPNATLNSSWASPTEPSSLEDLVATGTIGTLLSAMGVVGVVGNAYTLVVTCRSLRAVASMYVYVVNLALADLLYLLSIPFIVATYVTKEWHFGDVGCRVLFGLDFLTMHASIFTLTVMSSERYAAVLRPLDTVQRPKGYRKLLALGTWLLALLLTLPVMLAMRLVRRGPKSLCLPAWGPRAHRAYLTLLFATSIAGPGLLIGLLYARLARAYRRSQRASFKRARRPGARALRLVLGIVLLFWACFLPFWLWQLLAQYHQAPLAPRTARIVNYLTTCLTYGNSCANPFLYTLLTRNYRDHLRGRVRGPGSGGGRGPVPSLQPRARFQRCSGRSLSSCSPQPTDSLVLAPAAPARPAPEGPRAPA

[7] = tested on: adult mouse cardiomyocytes; experiment: Contractility under pacing of adult mouse cardiomyocytes; type: cell-based; details: 10 µM remdesivir, 30 min
Description: C57BL/6J mice for the isolation of adult mouse cardiomyocytes were purchased from Japan SLC Inc. (Shizuoka, Japan). Isolation of adult mouse ventricular cardiomyocytes was performed. Male mice were anesthetized by inhalation with isoflurane. The heart was quickly excised, and the aorta was clamped with a small vascular clamp. The heart was antegradely perfused with isolation buffer (less than 3 mL) containing 130 mM NaCl, 5.4 mM KCl, 0.5 mM MgCl2, 0.33 mM NaH2PO4, 25 mM HEPES, 22 mM glucose, and 50 μU/mL bovine insulin (Sigma) (pH 7.4, adjusted with NaOH) supplemented with 0.4 mM EGTA, followed by the perfusion of enzyme solution (10 mL) (isolation buffer containing 1 mg/mL collagenase type 2 (Worthington), 0.06 mg/mL trypsin (Sigma), 0.06 mg/mL protease (Sigma), and 0.3 mM CaCl2). Thereafter, the LV chamber was removed and cut into small pieces in an enzyme solution containing 0.2% bovine serum albumin (BSA) and 0.7 mM CaCl2. The tissue-cell suspension was filtered through a cell strainer (100 μm, Falcon) and centrifuged for 3 min at 50×g. After removing the supernatant, the cell pellet was resuspended in isolation buffer supplemented with 0.2% BSA and 1.2 mM CaCl2 and incubated for 7 min at 37 °C. […]
Microscopic images of cardiomyocytes were recorded for 13 seconds under pacing conditions. […] Imaging data were analyzed using Fiji software.

[8] = OR51E2 (olfactory receptor, family 51, subfamily E, member 2), read-out: % GPCR activation compared to TPA
[9] = TAS2R1 (taste receptor, type 2, member 1), read-out: % GPCR activation compared to TPA
[10] = GPR153 (G protein-coupled receptor 153), read-out: % GPCR activation compared to TPA
[11] = HCA2, GPCR GPR109A (hydroxycarboxylic acid receptor 2 (HCA2)), read-out: % GPCR activation compared to TPA
[12] = GPCR V1A (arginine vasopressin receptor 1A), read-out: % GPCR activation compared to TPA
[13] = read-out: % GPCR activation compared to TPA, OR51E2 (olfactory receptor, family 51, subfamily E, member 2)
[14] = read-out: % GPCR activation compared to TPA, TAS2R1 (taste receptor, type 2, member 1)
[15] = read-out: % GPCR activation compared to TPA, GPR153 (G protein-coupled receptor 153)
[16] = HCA2, read-out: % GPCR activation compared to TPA, GPCR GPR109A (hydroxycarboxylic acid receptor 2 (HCA2))
[17] = read-out: % GPCR activation compared to TPA, GPCR V1A (arginine vasopressin receptor 1A)

Chain of 348 GPCRs (Homo sapiens, UniProt Q8TDS4) (Q8TDS4 whole entry): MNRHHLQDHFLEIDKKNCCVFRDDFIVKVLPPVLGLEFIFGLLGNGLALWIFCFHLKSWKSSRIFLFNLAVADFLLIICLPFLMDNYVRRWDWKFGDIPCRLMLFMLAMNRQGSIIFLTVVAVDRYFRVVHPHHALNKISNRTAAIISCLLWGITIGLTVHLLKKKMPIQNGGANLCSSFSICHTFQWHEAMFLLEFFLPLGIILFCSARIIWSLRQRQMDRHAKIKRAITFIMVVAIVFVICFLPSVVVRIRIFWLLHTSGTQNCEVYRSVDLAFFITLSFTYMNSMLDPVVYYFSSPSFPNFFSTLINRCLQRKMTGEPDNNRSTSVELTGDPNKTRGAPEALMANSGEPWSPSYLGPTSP
T3 sequence (Q6NV75 whole entry): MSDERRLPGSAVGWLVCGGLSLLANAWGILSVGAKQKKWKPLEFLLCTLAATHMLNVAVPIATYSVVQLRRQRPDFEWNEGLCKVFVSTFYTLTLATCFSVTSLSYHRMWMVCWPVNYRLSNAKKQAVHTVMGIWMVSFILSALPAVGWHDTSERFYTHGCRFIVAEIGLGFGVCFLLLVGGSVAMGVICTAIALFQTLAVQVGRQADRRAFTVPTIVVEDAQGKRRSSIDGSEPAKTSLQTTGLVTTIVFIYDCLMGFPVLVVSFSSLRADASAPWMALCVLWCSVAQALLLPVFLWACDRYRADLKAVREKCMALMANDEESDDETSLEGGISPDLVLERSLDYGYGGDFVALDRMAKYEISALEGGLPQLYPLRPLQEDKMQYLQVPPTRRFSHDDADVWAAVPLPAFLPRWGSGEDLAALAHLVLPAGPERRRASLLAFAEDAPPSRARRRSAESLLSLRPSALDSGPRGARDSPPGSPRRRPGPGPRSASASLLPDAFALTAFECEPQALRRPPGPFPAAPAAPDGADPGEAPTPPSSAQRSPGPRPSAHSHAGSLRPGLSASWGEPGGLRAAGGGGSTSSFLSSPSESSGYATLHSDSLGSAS
T4 sequence (P37288 whole entry): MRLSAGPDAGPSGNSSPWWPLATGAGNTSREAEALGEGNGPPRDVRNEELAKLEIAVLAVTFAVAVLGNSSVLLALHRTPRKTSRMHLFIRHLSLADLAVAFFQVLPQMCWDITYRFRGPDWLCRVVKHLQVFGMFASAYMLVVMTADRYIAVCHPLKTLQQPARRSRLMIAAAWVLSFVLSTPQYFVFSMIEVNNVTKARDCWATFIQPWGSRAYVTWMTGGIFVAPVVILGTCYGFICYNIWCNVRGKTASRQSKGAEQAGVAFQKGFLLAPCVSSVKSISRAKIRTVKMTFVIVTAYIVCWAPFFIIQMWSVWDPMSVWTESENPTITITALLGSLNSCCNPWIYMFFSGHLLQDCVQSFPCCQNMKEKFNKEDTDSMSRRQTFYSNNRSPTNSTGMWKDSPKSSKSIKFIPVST

Structure (SMILES) | activation at 10 µM (348 GPCRs [1]; [8]) [%] | activation at 100 µM (348 GPCRs [2]; [9]) [%] | activation at 10 µM (348 GPCRs [3]; [10]) [%] | activation at 10 µM (348 GPCRs [4]; [11]) [%] | activation at 10 µM (348 GPCRs [5]; [12]) [%] | activation at 10 µM (348 GPCRs [1]; [13]) [%] | activation at 100 µM (348 GPCRs [2]; [14]) [%] | activation at 10 µM (348 GPCRs [3]; [15]) [%] | activation at 10 µM (348 GPCRs [4]; [16]) [%] | activation at 10 µM (348 GPCRs [5]; [17]) [%] | also measured
CCC(CC)COC(=O)[C@H](C)N[P@](=O)(OC[C@H]1O[C@@](C#N)(c2ccc3c(N)ncnn23)[C@H](O)[C@@H]1O)Oc1ccccc1 [remdesivir] |  |  |  |  |  | 0.358 | 0.931 | 4.65 | 2.36 | 0.24 | ⊿pEC50 compared to WT UTS2R (UTS2R T304V): -1; Emax [6]: 47 ± 1.4%; EC50 ([6]; WT EC50 (Remdesivir), wild-type UTS2R control run alongside the mutant): 17.4 µM and 15.9 µM and 10.7 µM and 14 µM and 10.2 µM and 10.8 µM and 12.4 µM (2×) and 18 µM and 11.6 µM and 18.5 µM; EC50 ([6]; pEC50 (TGFα-shedding response for UTS2R), WT UTS2R, without chimeric Gα protein, HEK293A cells): 12.9 µM; activation at 10 µM ([6]; read-out: UTS2R activation (%AP-TGFα release), compound concentration Log10 (M) -5, without urantide): 15%; activation at 3.3 µM ([6]; read-out: UTS2R activation (%AP-TGFα release), compound concentration Log10 (M) -5.48149, without urantide): 7.9%; contraction of adult cardiomyocytes [7]: significantly impaired the contraction
CC(C)OC(=O)[C@H](C)N[P@](=O)(OC[C@H]1O[C@@H](n2ccc(=O)[nH]c2=O)[C@](C)(F)[C@@H]1O)Oc1ccccc1 [sofosbuvir] |  |  |  |  |  | -1.75 | -0.974 | -14.2 | -29.6 | -0.512 | UTS2R activation ([6]; TGFα-shedding, screening 10 μM and response curves (Fig. 1a, Supplementary Fig. 1a)): did not activate UTS2R

Further lines, with some results ahead:

activation at 10 µM (348 GPCRs [1]; [8]) [%] | activation at 100 µM (348 GPCRs [2]; [9]) [%] | activation at 10 µM (348 GPCRs [3]; [10]) [%] | activation at 10 µM (348 GPCRs [4]; [11]) [%] | activation at 10 µM (348 GPCRs [5]; [12]) [%] | Structure (SMILES) | activation at 10 µM (348 GPCRs [1]; [13]) [%] | activation at 100 µM (348 GPCRs [2]; [14]) [%] | activation at 10 µM (348 GPCRs [3]; [15]) [%] | activation at 10 µM (348 GPCRs [4]; [16]) [%] | activation at 10 µM (348 GPCRs [5]; [17]) [%] | also measured
0.751 | -0.408 | -3.34 | 0.689 | -0.48 | N#C[C@@]1(c2ccc3c(N)ncnn23)O[C@H](CO)[C@@H](O)[C@H]1O [GS441524] |  |  |  |  |  | 
-0.415 | -0.27 | 0.731 |  |  | NC(=O)c1nc(F)cnc1O [favipiravir, 6-fluoro-3-hydroxy-2-pyrazinecarboxamide] |  |  |  |  |  | activation at 100 µM (348 GPCRs [4]; HCA2, GPCR GPR109A (hydroxycarboxylic acid receptor 2 (HCA2)), 100μM, read-out: % GPCR activation compared to TPA): 1.41%; activation at 100 µM (348 GPCRs [5]; GPCR V1A (arginine vasopressin receptor 1A), 100μM, read-out: % GPCR activation compared to TPA): 0.923%
-0.989 | -0.93 | -23.6 | -37.5 | 0.0613 | CC(C)C(=O)OC[C@H]1O[C@@H](n2ccc(NO)nc2=O)[C@H](O)[C@@H]1O [molnupiravir] |  |  |  |  |  | 
